# Test results from patent publication US10640457B2, “Histone acetyltransferase activators and uses thereof” (The Trustees of Columbia University in the City of New York, priority 2009, dated 2020).
# “And” between values parts separate entries of the source, which are not always exact repeats. Identical values can stand only once.
# Key:
# HDAC3/NCOR2 = HDAC3/NCOR2 (Homo sapiens, UniProt O15379); test: HDAC3/NCOR2 fluorogenic activity assay
# HDAC8 = target: T1, HDAC8 (Homo sapiens, UniProt Q9BY41); test: HDAC8 fluorogenic activity assay; details: for % Activity: Repeat1/Repeat2, listed as OA2
# T1 sequence (Q9BY41 1-377): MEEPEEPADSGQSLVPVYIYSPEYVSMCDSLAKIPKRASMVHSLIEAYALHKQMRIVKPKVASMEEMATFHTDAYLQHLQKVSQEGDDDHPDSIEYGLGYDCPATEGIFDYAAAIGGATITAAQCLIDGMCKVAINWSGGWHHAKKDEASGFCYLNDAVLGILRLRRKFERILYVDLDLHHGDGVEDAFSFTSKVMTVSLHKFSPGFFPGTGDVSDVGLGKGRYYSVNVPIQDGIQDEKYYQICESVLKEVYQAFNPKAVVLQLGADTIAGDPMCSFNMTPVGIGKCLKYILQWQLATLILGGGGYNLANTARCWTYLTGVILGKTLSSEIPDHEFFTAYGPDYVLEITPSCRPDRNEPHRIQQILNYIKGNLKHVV
# HDAC6 = target: T2, HDAC6 (Homo sapiens, UniProt Q9UBN7); test: HDAC6 fluorogenic activity assay; details: for % Activity: Repeat1/Repeat2, listed as OA2
# T2 sequence (Q9UBN7 1-1215): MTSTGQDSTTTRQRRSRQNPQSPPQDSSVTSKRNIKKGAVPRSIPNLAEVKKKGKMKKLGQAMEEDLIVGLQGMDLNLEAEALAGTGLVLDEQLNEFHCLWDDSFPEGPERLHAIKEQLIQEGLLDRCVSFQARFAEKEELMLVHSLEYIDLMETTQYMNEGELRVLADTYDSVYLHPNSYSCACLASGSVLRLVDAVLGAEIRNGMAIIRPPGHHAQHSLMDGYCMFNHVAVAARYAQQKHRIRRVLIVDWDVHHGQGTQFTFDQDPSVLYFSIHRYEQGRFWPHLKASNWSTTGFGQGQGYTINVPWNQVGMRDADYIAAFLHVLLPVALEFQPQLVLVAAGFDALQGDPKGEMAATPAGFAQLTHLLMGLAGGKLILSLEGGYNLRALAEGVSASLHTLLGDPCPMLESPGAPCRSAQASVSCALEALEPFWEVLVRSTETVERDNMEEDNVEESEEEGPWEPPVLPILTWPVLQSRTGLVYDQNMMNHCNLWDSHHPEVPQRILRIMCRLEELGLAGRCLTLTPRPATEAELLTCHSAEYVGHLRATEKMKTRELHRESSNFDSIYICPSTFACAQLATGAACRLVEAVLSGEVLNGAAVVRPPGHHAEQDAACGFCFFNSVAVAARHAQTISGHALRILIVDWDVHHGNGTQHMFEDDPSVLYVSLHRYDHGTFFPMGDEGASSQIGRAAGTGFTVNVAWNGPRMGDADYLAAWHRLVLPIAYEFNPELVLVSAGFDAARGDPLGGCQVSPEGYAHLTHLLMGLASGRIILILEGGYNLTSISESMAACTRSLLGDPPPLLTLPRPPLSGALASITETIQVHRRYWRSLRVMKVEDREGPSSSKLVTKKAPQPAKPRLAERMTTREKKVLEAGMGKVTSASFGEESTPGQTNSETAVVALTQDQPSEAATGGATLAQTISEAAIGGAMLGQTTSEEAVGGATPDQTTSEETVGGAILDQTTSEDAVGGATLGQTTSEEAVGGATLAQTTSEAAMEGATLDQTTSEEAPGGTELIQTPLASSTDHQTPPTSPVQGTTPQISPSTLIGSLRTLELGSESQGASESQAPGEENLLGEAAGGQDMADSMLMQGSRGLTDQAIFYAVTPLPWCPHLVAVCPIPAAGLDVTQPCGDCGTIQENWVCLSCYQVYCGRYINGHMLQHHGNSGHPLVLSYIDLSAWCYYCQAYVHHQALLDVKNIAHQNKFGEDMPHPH
# CBP = target: T3, CBP (Homo sapiens, UniProt Q92793); test: In vitro HAT activation assay, CBP; format: biochemical
# T3 construct: we will use the catalytic domain of human CBP, PCAF, p300 and GCNS (Enzo Life Sci., USA); purchased Enzo Life Sci
# Text: Compounds will be tested for HAT activator activity first, using the HAT Assay kit from Active Motif (USA, CA). For this assay, we will use the catalytic domain of human CBP, PCAF, p300 and GCNS (Enzo Life Sci., USA). The catalytic domains for the remaining HATs will be produced using New England Biolabs K. lactis Protein Expression Kit. […] When assayed against all other HATs, they must show at least a 50 fold greater potency towards CBP and/or PCAF.
# YAC128 mice = test: Accelerating rotarod in YAC128 Huntington's Disease mice; format: in vivo; details: YF2 5 mg/kg from age 2 months
# Protocol: Animals: Mouse models of Huntington's Disease (YAC128) versus wildtype (WT) littermates.
# Accelerating Rotarod: This assay is a common assay used to monitor motor coordination in mouse models of Huntington's disease (HD). After a training period to acclimatize the mice to the apparatus, mice are placed on a rod rotating at 5 rpm. Over the test period of 300 sec, the rod increases its rotational speed from 5 rpm to 40 rpm. The time at which the mouse falls off of the rod is recorded. Each mouse is subject to 3 runs per day (shown as a per day average) across 3 days (d1, d2, d3). Typically 8 to 12 mice per group are used in this assay. Both male and female data are shown for age 4 months (FIG. 83A) and 6 months (FIG. 83B).
# Chain of HDAC3/NCOR2 (O15379 whole entry): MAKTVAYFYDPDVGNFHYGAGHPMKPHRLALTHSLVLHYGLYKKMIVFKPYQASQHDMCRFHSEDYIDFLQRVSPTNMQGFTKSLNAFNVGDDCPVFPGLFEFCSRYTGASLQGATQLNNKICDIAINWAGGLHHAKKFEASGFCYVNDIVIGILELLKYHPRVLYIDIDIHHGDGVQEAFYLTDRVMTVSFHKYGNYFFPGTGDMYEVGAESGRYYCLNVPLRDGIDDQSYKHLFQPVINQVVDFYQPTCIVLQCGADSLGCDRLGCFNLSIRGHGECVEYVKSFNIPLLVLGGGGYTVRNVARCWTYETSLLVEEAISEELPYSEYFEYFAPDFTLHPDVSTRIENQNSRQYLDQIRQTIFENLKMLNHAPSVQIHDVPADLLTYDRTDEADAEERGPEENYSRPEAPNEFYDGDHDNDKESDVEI
# Chain of HDAC3/NCOR2 (Q9Y618 395-489 partner limits assumed): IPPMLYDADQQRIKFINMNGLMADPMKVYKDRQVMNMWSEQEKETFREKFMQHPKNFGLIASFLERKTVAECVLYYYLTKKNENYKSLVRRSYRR
# T3 sequence (Q92793 1323-1700 limits assumed): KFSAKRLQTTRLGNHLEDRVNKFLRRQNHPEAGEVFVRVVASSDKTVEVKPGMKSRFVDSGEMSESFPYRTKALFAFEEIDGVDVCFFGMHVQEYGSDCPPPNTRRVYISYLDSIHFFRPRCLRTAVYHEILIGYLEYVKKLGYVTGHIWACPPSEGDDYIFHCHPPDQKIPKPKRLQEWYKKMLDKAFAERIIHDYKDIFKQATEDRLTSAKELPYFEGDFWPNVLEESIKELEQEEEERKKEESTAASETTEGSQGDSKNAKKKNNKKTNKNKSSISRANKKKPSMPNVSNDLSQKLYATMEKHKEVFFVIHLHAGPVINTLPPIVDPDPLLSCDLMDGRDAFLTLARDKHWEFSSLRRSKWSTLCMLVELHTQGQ
compound,measurement,setting,value
CCOc1cccc(OCCN(C)C)c1C(=O)Nc1ccc(Cl)c(C(F)(F)F)c1 [YF2],IC50,HDAC3/NCOR2,> 200 µM
same,IC50,HDAC8,> 200 µM
same,% Activity,HDAC8; OA2 Log[nM] 0.5,101.88% and 103.15%
same,% Activity,HDAC8; OA2 Log[nM] 1.5,102.04%
same,% Activity,HDAC8; OA2 Log[nM] 2.0,108.80%
same,% Activity,HDAC8; OA2 Log[nM] 3.0,84.45%
same,% Activity,HDAC8; OA2 Log[nM] 3.5,109.88%
same,% Activity,HDAC8; OA2 Log[nM] 4.5,85.17% and 86.60%
same,% Activity,HDAC8; OA2 Log[nM] 5.3,58.33% and 105.63%
same,IC50,HDAC6,> 200 µM
same,% Activity,HDAC6; OA2 Log[nM] 0.5,104.75% and 106.28%
same,% Activity,HDAC6; OA2 Log[nM] 1.0,106.10% and 100.51%
same,% Activity,HDAC6; OA2 Log[nM] 1.5,96.75% and 108.50%
same,% Activity,HDAC6; OA2 Log[nM] 2.0,100.33% and 105.31%
same,% Activity,HDAC6; OA2 Log[nM] 2.5,99.30% and 99.28%
same,% Activity,HDAC6; OA2 Log[nM] 3.0,100.06% and 94.62%
same,% Activity,HDAC6; OA2 Log[nM] 3.5,96.79% and 97.61%
same,% Activity,HDAC6; OA2 Log[nM] 4.0,94.62% and 100.10%
same,% Activity,HDAC6; OA2 Log[nM] 4.5,79.13% and 87.65%
same,% Activity,HDAC6; OA2 Log[nM] 5.3,70.40% and 102.77%
same,EC50,CBP,2.7 µM
same,rotarod performance deficit of YAC128 vs WT mice,"YAC128 mice; female mice, 6 months of age",significance is lost
same,rotarod performance deficit of YAC128 vs WT mice,"YAC128 mice; male mice, 4 months of age",significance is lost
